From patent publication US10196357B2, “Biaryl compositions and methods for modulating a kinase cascade” (Athenex, Inc., priority 2007, dated 2019)
Several values for one entry are separate records, joined by “and”; a condition that tells them apart may be missing. Equal values may be shown once. Read-outs that look alike come from different tables or passages of the source.

Columns and labels:
GL261 glioma cells = assay: intracranial GL261 glioma survival study; format: in vivo, C57BL/6 mice; conditions: 5 mg/kg bid oral; C57BL/6 mice, intracranial GL261
Experimental: (§1) A brain tumor mouse xenograft study was conducted comparing KX2-361 and KX2-391 (KXO1) to Temodar®. The studies were conducted in C57BL/6 mice. GL261 glioma cells (1×10^5 in 5 μl DMEM) were implanted intracranial coordinates: bregma, lateral 2.0 mm, anterior 1.2 mm, 3.0 mm depth dura. Treatment was initiated 3 days post implantation. The groups were as follows (all doses in 100 μl H2O):
The median survival range and the log-rank (Mantel-Cox) statistical test results comparing the survival distributions of the samples.

Lyn(h) = Lyn(h) (Homo sapiens, UniProt P07948); assay: isolated kinase activity, Lyn; format: biochemical; conditions: compound @ 10 μM
Text: (§2) Table 8 illustrates percent activity of isolated kinases in the presence of the AstraZeneca ATP-competitive inhibitor (KX2-328, AZ-28) or KX2-391 relative to control (untreated) isolated kinases.

SKOV-3 (Ovarian) = assay: growth inhibition (BrdU), SKOV-3; format: cell-based, Human; conditions: Homo sapiens, SK-OV-3, SKOV-3, BrdU, T=72
Text: (§3) Growth Inhibition. […] T1 values≤T0 values were designated as T, cytotoxicity.

[1] = system: lung cancer cell line A549; assay: tumor growth inhibition, A549; format: cell-based, Human; conditions: Homo sapiens, A549, A549, BrdU, T=72
Text: as §3

Shc Y239/240 = assay: intracellular phosphorylation, Shc Y239/240; format: cell-based; conditions: whole cells
Experimental: (§4) HT29 (colon cancer) and c-Src527F/NIH-3T3 (Src transformed) cell lines were treated with KX2-391 or with AstraZeneca's ATP competitive Src inhibitor AZ28. AZ28 serves as a positive comparator to show what a validated Src inhibitor should do in these assays. After treatment with compound, cells were lysed, subjected to PAGE and probed with a battery of antibodies. […] In addition, off-target protein phosphorylation was also investigated. Further, induction of apoptosis was evaluated via Caspase 3 cleavage. Multiple doses of each compound were tested because the trends in response to increasing drug concentration are the most reliable indicator of activity.
(§5) The same range of multiples of the GI50 for AZ28 in these two cell lines was run as a comparison.
KX2-391 and AZ28 inhibited Src transphosphorylation.

[2] = body weight in GL261 glioma survival study; format: in vivo; conditions: 5 mg/kg, C57BL/6 mice
Experimental: as §1
FIGS. 49A-E show the weight gain in each of the C57BL/6 mice in the different treatment groups. The average weight at endpoint for each of the treatment groups is shown below in Table 30. FIG. 50 is a graph showing the average weights over a 40-day period for each of the treatment groups.

PKCα(h) = PKCα(h) (Homo sapiens, UniProt P17252); assay: isolated kinase activity, PKCα; format: biochemical; conditions: compound @ 10 μM
Text: as §2

[3] = plasma exposure after oral administration; format: in vivo, male CD-1 mice; conditions: for concentration at 0.5 h / concentration at 1 h / concentration at 2 h / concentration at 5 h / AUC(0-t) / Cmax / Tmax: male, CD-1, mouse; for concentration at 0.5 h / concentration at 1 h / concentration at 2 h / concentration at 5 h: plasma, po; for AUC(0-t) / Cmax / Tmax: Plasma
Experimental: Plasma concentrations were measured in mice after oral administration. All doses were formulated in purified water. Four groups of male CD-1 mice were dosed after an overnight fast and fed 4 hours post-dose. Dosing was as follows:
Protein was precipitated with 0.25 mL acetonitrile for plasma, 0.25 mL for brain. After centrifugation, supernatant was directly injected into an LC/MS system. The limit of quantitation was 1 ng/mL using a 50 μL aliquot for plasma and a 50 μL, aliquot for brain. The standard curve was 1 to 1,000 ng/mL for both plasma and brain. HPLC conditions were as follows:
HPLC System: Shimadzu SCL-10 System
• Analytical Column: Aquasil C18 5 μm 100×2 mm column. • Column Temperature: Ambient temperature • Autosampler Temperature: Ambient temperature • Mobile Phase A) 10 mM Ammonium formate in water (pH 4). • B) Acetonitrile. • Flow Rate: 0.6 mL/min • Injection Volume: 2 μL • Gradient:
• Mass Spectrometry Conditions were as follows: • Instrument: ABI Sciex API 4000 • Mode: ESI+ • Experiment: MRM (multiple reaction monitoring) • Transitions: KX2-391: m/z 432.4→114.2 (Rt=3.11 minute) • KX2-361: m/z 406.1→253.2 (Rt=3.33 minute)

L3.6pl cells = assay: growth inhibition (BrdU), L3.6pl; format: cell-based, human; conditions: Homo sapiens, L3.6pl, L3.6pl (Pancreas) cells, single agent
Text: L3.6pl cells are previously described in Trevino et al. Am J Pathol.

isolated Src = isolated Src (Homo sapiens, UniProt P12931); assay: titration against isolated Src; format: biochemical; conditions: titration data
FGFR2(h) = FGFR2(h) (Homo sapiens, UniProt P21802); assay: isolated kinase activity, FGFR2; format: biochemical; conditions: compound @ 10 μM
Text: as §2

[4] = system: total phosphotyrosine levels; assay: total phosphotyrosine levels; format: cell-based; conditions: HT29 and c-Src527F/NIH-3T3 cells
Experimental: as §4, §5

Chain of isolated Src (P12931 whole entry): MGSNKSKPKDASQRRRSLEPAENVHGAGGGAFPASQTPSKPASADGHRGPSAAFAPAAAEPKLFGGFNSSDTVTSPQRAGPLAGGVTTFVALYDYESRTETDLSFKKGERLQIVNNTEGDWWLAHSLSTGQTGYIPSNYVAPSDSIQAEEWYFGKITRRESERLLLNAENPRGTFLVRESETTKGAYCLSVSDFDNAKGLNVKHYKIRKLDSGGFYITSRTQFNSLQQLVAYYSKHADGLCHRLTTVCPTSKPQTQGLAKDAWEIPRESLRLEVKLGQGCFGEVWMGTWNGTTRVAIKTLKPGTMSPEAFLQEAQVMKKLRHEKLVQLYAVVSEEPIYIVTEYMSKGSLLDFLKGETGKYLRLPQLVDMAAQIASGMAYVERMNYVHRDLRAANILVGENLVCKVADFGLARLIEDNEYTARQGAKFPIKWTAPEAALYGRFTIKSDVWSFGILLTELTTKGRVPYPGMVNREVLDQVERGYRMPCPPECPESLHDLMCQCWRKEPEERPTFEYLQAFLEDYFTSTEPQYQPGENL
Chain of Lyn(h) (P07948 whole entry): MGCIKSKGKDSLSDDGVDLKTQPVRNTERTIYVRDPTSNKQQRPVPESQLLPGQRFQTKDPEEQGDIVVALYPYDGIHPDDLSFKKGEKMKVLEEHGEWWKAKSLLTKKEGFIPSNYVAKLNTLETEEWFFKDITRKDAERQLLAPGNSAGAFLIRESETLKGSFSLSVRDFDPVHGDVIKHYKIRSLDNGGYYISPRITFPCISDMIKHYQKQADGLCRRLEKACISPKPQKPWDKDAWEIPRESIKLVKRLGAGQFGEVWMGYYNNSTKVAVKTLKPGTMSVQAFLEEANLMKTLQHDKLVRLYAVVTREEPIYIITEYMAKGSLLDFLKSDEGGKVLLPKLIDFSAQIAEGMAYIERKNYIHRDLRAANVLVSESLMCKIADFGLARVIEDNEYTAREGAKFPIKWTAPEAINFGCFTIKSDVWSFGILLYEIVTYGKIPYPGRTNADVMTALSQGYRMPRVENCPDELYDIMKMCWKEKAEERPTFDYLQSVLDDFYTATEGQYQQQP
Chain of FGFR2(h) (P21802 22-821): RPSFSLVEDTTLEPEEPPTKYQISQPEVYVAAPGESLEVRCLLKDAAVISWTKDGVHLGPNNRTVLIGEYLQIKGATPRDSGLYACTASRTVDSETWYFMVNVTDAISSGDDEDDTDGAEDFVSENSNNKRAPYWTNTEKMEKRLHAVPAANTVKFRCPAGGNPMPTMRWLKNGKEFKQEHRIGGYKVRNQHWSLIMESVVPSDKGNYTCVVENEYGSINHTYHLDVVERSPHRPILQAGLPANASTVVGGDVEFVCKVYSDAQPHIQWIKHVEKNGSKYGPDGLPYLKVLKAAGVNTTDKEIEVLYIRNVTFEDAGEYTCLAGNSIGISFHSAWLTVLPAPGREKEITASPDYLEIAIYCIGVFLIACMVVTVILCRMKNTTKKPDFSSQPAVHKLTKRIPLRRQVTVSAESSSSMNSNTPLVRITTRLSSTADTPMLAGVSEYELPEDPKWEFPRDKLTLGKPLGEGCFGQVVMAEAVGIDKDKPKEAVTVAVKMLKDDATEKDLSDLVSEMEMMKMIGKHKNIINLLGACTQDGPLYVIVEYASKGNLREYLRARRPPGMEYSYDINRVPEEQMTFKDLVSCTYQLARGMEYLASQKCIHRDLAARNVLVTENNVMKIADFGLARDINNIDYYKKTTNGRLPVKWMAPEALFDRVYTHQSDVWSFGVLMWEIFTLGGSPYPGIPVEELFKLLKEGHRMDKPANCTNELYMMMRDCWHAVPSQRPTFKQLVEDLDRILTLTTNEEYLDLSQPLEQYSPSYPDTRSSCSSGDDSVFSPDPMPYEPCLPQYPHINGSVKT

For O=C(Cc1ccc(-c2ccc(OCCN3CCOCC3)cc2)cn1)NCc1ccccc1 [KX2-391], the Median survival (GL261 glioma cells) was 23, the “survival Range” value (GL261 glioma cells) was 22-29 and the “percent activity of isolated kinase relative to control” value (Lyn(h)) was 113%. The GI50 (SKOV-3 (Ovarian)) was 9.75 nM, the GI50 [1] was 9.39 nM and the “phosphorylation of Shc Y239/240 (Src transphosphorylation)” value (Shc Y239/240) was “inhibited”. The “Average weight at endpoint” value [2] was 14.3 g, the “percent activity of isolated kinase relative to control” value (PKCα(h)) was 111% and the concentration at 0.5 h ([3]; 10 mg/kg, single PO dose 10 mg/kg (Group 1), 0.5 hr, read-out: Plasma Concentrations, Group A, B, C) was 779 ng/mL. The concentration at 0.5 h ([3]; 10 mg/kg, single PO dose 10 mg/kg (Group 1), 0.5 hr, read-out: Plasma Concentrations, Mean) was 871 ng/mL, the concentration at 1 h ([3]; 10 mg/kg, single PO dose 10 mg/kg (Group 1), 1 hr, read-out: Plasma Concentrations, Mean) was 363 ng/mL and the concentration at 2 h ([3]; 10 mg/kg, single PO dose 10 mg/kg (Group 1), 2 hr, read-out: Plasma Concentrations, Group A, B, C) was 328 ng/mL. The concentration at 2 h ([3]; 10 mg/kg, single PO dose 10 mg/kg (Group 1), 2 hr, read-out: Plasma Concentrations, Mean) was 287 ng/mL, the concentration at 5 h ([3]; 10 mg/kg, single PO dose 10 mg/kg (Group 1), 5 hr, read-out: Plasma Concentrations, Group A, B, C) was 133 ng/mL and the concentration at 5 h ([3]; 10 mg/kg, single PO dose 10 mg/kg (Group 1), 5 hr, read-out: Plasma Concentrations, Mean) was 147 ng/mL. It also gave a concentration at 0.5 h ([3]; 50 mg/kg, single PO dose 50 mg/kg (Group 2), 0.5 hr, read-out: Plasma Concentrations, Group A, B, C) of 8510 ng/mL, a concentration at 0.5 h ([3]; 50 mg/kg, single PO dose 50 mg/kg (Group 2), 0.5 hr, read-out: Plasma Concentrations, Mean) of 9720 ng/mL and a concentration at 1 h ([3]; 50 mg/kg, single PO dose 50 mg/kg (Group 2), 1 hr, read-out: Plasma Concentrations, Group A, B, C) of 2370 ng/mL. For the same molecule, the concentration at 1 h ([3]; 50 mg/kg, single PO dose 50 mg/kg (Group 2), 1 hr, read-out: Plasma Concentrations, Mean) was 2060 ng/mL, the concentration at 2 h ([3]; 50 mg/kg, single PO dose 50 mg/kg (Group 2), 2 hr, read-out: Plasma Concentrations, Group A, B, C) was 1150 ng/mL and the concentration at 2 h ([3]; 50 mg/kg, single PO dose 50 mg/kg (Group 2), 2 hr, read-out: Plasma Concentrations, Mean) was 1510 ng/mL. For the same molecule, the concentration at 5 h ([3]; 50 mg/kg, single PO dose 50 mg/kg (Group 2), 5 hr, read-out: Plasma Concentrations, Mean) was 922 ng/mL, the AUC(0-t) ([3]; single oral dose 10 mg/kg) was 1500 ng·h/mL and the Cmax ([3]; single oral dose 10 mg/kg) was 871 ng/mL. It also gave a Tmax ([3]; single oral dose 10 mg/kg) of 30 min, an AUC(0-t) ([3]; single oral dose 50 mg/kg) of 10800 ng·h/mL and a Cmax ([3]; single oral dose 50 mg/kg) of 9720 ng/mL. The Tmax ([3]; single oral dose 50 mg/kg) was 30 min, the “Plasma Concentrations, Group A, B, C” value ([3]; single PO dose 10 mg/kg (Group 1), 0.5 hr, 10 mg/kg) was 1096.62 ng/mL and 737.37 ng/mL and the “Plasma Concentrations, Group A, B, C” value ([3]; single PO dose 10 mg/kg (Group 1), 2 hr, 10 mg/kg) was 271.89 ng/mL and 261.57 ng/mL. For the same molecule, the “Plasma Concentrations, Group A, B, C” value ([3]; single PO dose 10 mg/kg (Group 1), 5 hr, 10 mg/kg) was 147.74 ng/mL and 160.62 ng/mL, the “Plasma Concentrations, Group A, B, C” value ([3]; single PO dose 50 mg/kg (Group 2), 0.5 hr, 50 mg/kg) was 8334.53 ng/mL and 12315.31 ng/mL and the “Plasma Concentrations, Group A, B, C” value ([3]; single PO dose 50 mg/kg (Group 2), 1 hr, 50 mg/kg) was 2442.20 ng/mL and 1365.56 ng/mL. The “Plasma Concentrations, Group A, B, C” value ([3]; single PO dose 50 mg/kg (Group 2), 2 hr, 50 mg/kg) was 1546.09 ng/mL and 1850.18 ng/mL, the GI50 (L3.6pl cells) was 53 nM and the IC50 (isolated Src) was 46000 nM. For the same molecule, the “percent activity of isolated kinase relative to control” value (FGFR2(h)) was 94% and the total phosphotyrosine levels [4] was “reduction in the total phosphotyrosine levels”.
